Experiments:
Format in all cases: in vivo
Alternaria solani = experiment: Alternaria test (tomatoes)/preventive; settings: preventive, 3 days after inoculation
Experimental: (§1) Solvent: 24.5 parts by weight of acetone • 24.5 parts by weight of dimethylacetamide Emulsifier: 1 part by weight of alkylaryl polyglycol ether
(§2) To produce a suitable preparation of active compound, 1 part by weight of active compound is mixed with the stated amounts of solvent and emulsifier, and the concentrate is diluted with water to the desired concentration.
To test for preventive activity, young plants are sprayed with the preparation of active compound at the stated rate of application. After the spray coating has dried on, the plants are inoculated with an aqueous spore suspension of Alternaria solani. The plants are then placed in an incubation cabinet at approximately 20° C. and a relative atmospheric humidity of 100%.
The test is evaluated 3 days after the inoculation. 0% means an efficacy which corresponds to that of the untreated control while an efficacy of 100% means that no disease is observed.

Botrytis cinerea = experiment: Botrytis test (beans)/preventive; settings: preventive, 2 days after inoculation
Experimental: as §1, §2
To test for preventive activity, young plants are sprayed with the preparation of active compound. After the spray coating has dried on, 2 small pieces of agar covered with growth of Botrytis cinerea are placed on each leaf. The inoculated plants are placed in a darkened chamber at 20° C. and a relative atmospheric humidity of 100%.
2 days after the inoculation, the size of the lesions on the leaves is evaluated. 0% means an efficacy which corresponds to that of the untreated control, while an efficacy of 100% means that no disease is observed.

Venturia inaequalis = experiment: Venturia test (apples)/preventive; settings: preventive, 10 days after inoculation
Experimental: as §1, §2
To test for preventive activity, young plants are sprayed with the preparation of active compound at the stated rate of application. After the spray coating has dried on, the plants are inoculated with an aqueous conidia suspension of the causal agent of apple scab (Venturia inaequalis) and then remain for 1 day in an incubation cabinet at approximately 20° C. and a relative atmospheric humidity of 100%.
The plants are then placed in a greenhouse at approximately 21° C. and a relative atmospheric humidity of approximately 90%.
The test is evaluated 10 days after the inoculation. 0% means an efficacy which corresponds to that of the untreated control, while an efficacy of 100% means that no disease is observed.

Leptosphaeria nodorum = Leptosphaeria nodorum test (wheat)/preventive; settings: preventive, 8 days after inoculation
Experimental: Solvent: 49 parts by weight of N,N-dimethylacetamide Emulsifier: 1 part by weight of alkylaryl polyglycol ether To produce a suitable preparation of active compound, 1 part by weight of active compound or active compound combination is mixed with the stated amounts of solvent and emulsifier, and the concentrate is diluted with water to the desired concentration. To test for preventive activity, young plants are sprayed with the preparation of active compound or active compound combination at the stated rate of application. After the spray coating has been dried, the plants are sprayed with a spore suspension of Leptosphaeria nodorum. The plants remain for 48 hours in an incubation cabinet at approximately 20° C. and a relative atmospheric humidity of approximately 100%. The plants are placed in the greenhouse at a temperature of approximately 22° C. and a relative atmospheric humidity of approximately 80%. The test is evaluated 8 days after the inoculation. 0% means an efficacy which corresponds to that of the untreated control, while an efficacy of 100% means that no disease is observed.

Cn1c(=O)c2sc3c(=O)n(C)c(=O)c3sc2c1=O [(I-1), 2,6-dimethyl-1H,5H-[1,4]dithiino[2,3-c:5,6-c′]dipyrrole-1,3,5,7(2H,6H)-tetrone]
Efficacy in % found (Alternaria solani; 50 ppm a.i.): 29% | Efficacy in % found (Alternaria solani; 100 ppm a.i.): 26% | Efficacy in % found (Botrytis cinerea; 12.5 ppm a.i.): 15% | Efficacy in % found (Botrytis cinerea; 25 ppm a.i.): 33% | Efficacy in % found (Venturia inaequalis; 12.5 ppm a.i.): 0% | Efficacy in % found (Venturia inaequalis; 25 ppm a.i.): 15% | Efficacy in % found (Venturia inaequalis; 50 ppm a.i.): 62% | Efficacy in % found (Leptosphaeria nodorum; 1000 ppm a.i.): 0%

CC1(C)N=C(c2cnc3ccccc3c2)c2ccccc2C1(F)F [Ex 10, 3-(4,4-difluoro-3,3-dimethyl-3,4-dihydroisoquinolin-1-yl)quinoline]
Efficacy in % found (Alternaria solani; 100 ppm a.i.): 37% | Efficacy in % found (Leptosphaeria nodorum; 250 ppm a.i.): 88%

CC1(C)N=C(c2cnc3ccccc3c2)c2cccc(F)c2C1(C)C [Ex 11, 3-(5-fluoro-3,3,4,4-tetramethyl-3,4-dihydroisoquinolin-1-yl)quinoline]
Efficacy in % found (Alternaria solani; 50 ppm a.i.): 38% | Efficacy in % found (Botrytis cinerea; 0.5 ppm a.i.): 30% | Efficacy in % found (Venturia inaequalis; 1 ppm a.i.): 0% | Efficacy in % found (Leptosphaeria nodorum; 250 ppm a.i.): 75%

CC1(C)N=C(c2cnc3ccccc3c2)c2cccc(F)c2C1(F)F [Ex 12, 3-(4,4,5-trifluoro-3,3-dimethyl-3,4-dihydroisoquinolin-1-yl)quinoline]
Efficacy in % found (Alternaria solani; 50 ppm a.i.): 13% | Efficacy in % found (Botrytis cinerea; 0.5 ppm a.i.): 35% | Efficacy in % found (Venturia inaequalis; 0.25 ppm a.i.): 46% | Efficacy in % found (Leptosphaeria nodorum; 250 ppm a.i.): 75%

Cc1cc(OC(C)C)ccc1C(=O)C(C)(C)NC(=O)c1sccc1C [Ex 13, N-[1-(4-isopropoxy-2-methylphenyl)-2-methyl-1-oxopropan-2-yl]-3-methylthiophene-2-carboxamide]
Efficacy in % found (Alternaria solani; 20 ppm a.i.): 52% | Efficacy in % found (Venturia inaequalis; 10 ppm a.i.): 64% | Efficacy in % found (Leptosphaeria nodorum; 250 ppm a.i.): 25%

CNC(=O)C(OC)c1ccccc1COc1cc(C)ccc1C (stereo not drawn) [Ex 14, N-methyl-alpha-methoxy-2-[(2,5-dimethylphenoxy)methyl]phenylacetamide]
Efficacy in % found (Alternaria solani; 5 ppm a.i.): 52% | Efficacy in % found (Botrytis cinerea; 1.25 ppm a.i.): 0% | Efficacy in % found (Venturia inaequalis; 1.25 ppm a.i.): 31% | Efficacy in % found (Leptosphaeria nodorum; 250 ppm a.i.): 25%

OC(c1cccnc1)c1c(-c2ccc(Cl)cc2F)noc1-c1ccc(F)cc1F (centres unmarked) [Ex 15, [3-(4-chloro-2-fluorophenyl)-5-(2,4-difluorophenyl)-1,2-oxazol-4-yl](pyridin-3-yl)methanol]
Efficacy in % found (Alternaria solani; 5 ppm a.i.): 24% | Efficacy in % found (Botrytis cinerea; 2.5 ppm a.i.): 0% | Efficacy in % found (Venturia inaequalis; 5 ppm a.i.): 60% | Efficacy in % found (Leptosphaeria nodorum; 250 ppm a.i.): 88%
